Results taken from article PMC9732821, “Neurotrophic Activity and Its Modulation by Zinc Ion of a Dimeric Peptide Mimicking the Brain-Derived Neurotrophic Factor N-Terminal Region” (ACS Chemical Neuroscience, 2022).

System: SH-SY5Y cells
Assay: MTS cell viability assay, RA-differentiated SH-SY5Y cells
Assay type: cell-based, human
Settings: three days
Method: one-way ANOVA with Dunnett’s multiple comparison test , # p<0.05 versus BDNF, according to one-way ANOVA with Sidak’s multiple comparison test).
Figure S 2. MT S assay for BDNF and its mimetic peptides. Cell viability assay of RA - differentiated SH -SY5Y cells treated for three days with 150 ng/ml BDNF of with different concentrations of m-, d- or s-bdnf peptides (M, D and S, respectively). ** p<0.01, *p<0.05, according to one-way ANOVA with Dunnett’s multiple comparison test).
(1 picture or pasted object on this page, not shown here) […]
incubated for 3 days in serum-free DMEM-F12 (morphometric ctrl). […]
SH-SY5Y were seeded at a density of 3.000 cell/well in 96 multiwell and differentiated as describe above. The viability of differentiated cells, in response to the various treatments, was assessed using an MTS assay (CellTiter 96 AQueous One Solution Cell Proliferation Assay kit; Promega) according to the manufacturer’s instructions. The absorbance of formazan at 490 nm was measured in a colorimetric assay with the EnSightTM multimode plate reader (Perkin Elmer). […]
TrkB phosphorylation was monitored after TrkB-eGFP construct immunoprecipitation, similarly to what previously reported for TrkA phosphorylation 3. […]

“HSDPARRGELSV-NH2 [m-bdnf, linear peptide fragment encompassing the first 12 amino acids of the mature NT N-terminal]” was tested, and the “cell viability (toxicity)” value (lower doses of m-bdnf) was “some toxicity”.

In the case of “HSDPARRGELSVC-C-VSLEGRRAPDSH (disulfide) [d-bdnf]”, the cell viability (5–10 μM d-bdnf) is reported as “no reduced vitality of the culture”.
